Columns and labels:
[1] = biological target: T1, Adrenergic β2 (H292 cells) (Homo sapiens, UniProt P07550); experiment: Adrenergic β2 Mediated cAMP Production, single concentration 1 μM; assay type: cell-based; conditions: NCI-H292, 1 μM compound, percentage of the maximum response generated by 1E-07M formoterol, read-out: β2 (% effect at 1 μM)
T1 construct: endogenous in cells; host or cells: H292 cells
Protocol: The following experimental procedure was used to measure the beta-2% effect at 1 μM for the compounds of Examples 116-263. Adrenergic β2 Mediated cAMP Production Cell Preparation
H292 cells are grown in 225 cm2 flasks incubator at 37° C., 5% CO2 in RPMI medium containing 10% (v/v) FBS (foetal bovine serum) and 2 mM L-glutamine.
Compounds were prepared by an initial first dilution into DMSO to give 1 mM stock concentration. This was followed by a 1 in 10 dilution of the stock concentration (10 μl stock compound+90 μl DMSO) to give 0.1 mM compound.
A compound addition plate was prepared by making a further 1 in 25 dilution in assay buffer (HBSS solution containing 10 mM HEPES pH7.4 and 5 mM glucose) containing 4% dimethylsulfoxide. The final compound concentration in assay is 1 μM.
Adherent H292 cells are removed from tissue culture flasks by treatment with Accutase™ cell detachment solution for 15 minutes. Flasks are incubated for 15 minutes in a humidified incubator at 37° C., 5% CO2. Detached cells are re-suspended in RPMI media (containing 10% (v/v) FBS and 2 mM L-glutamine) at 0.1×10^6 cells per mL. 10000 cells in 100 μL are added to each well of a tissue-culture-treated 96-well plate and the cells incubated overnight in a humidified incubator at 37° C., 5% CO2. The culture media is removed and cells are washed twice with 100 μL assay buffer and replaced with 50 μL assay buffer (HBSS solution containing 10 mM HEPES pH7.4 and 5 mM glucose). Cells are rested at room temperature for 20 minutes after which time 25 μL of rolipram (1.2 mM made up in assay buffer) is added. Cells are incubated with rolipram for 10 minutes after which time 25 μl test compounds are added and the cells are incubated for 60 minutes at room temperature. The final rolipram concentration in the assay is 300 μM and final vehicle concentration is 1% (v/v) dimethylsulphoxide. The reaction is stopped by removing supernatants, washing once with 100 μL assay buffer and replacing with 50 μL lysis buffer. The cell monolayer is frozen at −80° C. for 30 minutes (or overnight).
AlphaScreen™ cAMP Detection
The concentration of cAMP (cyclic adenosine monophosphate) in the cell lysate is determined using AlphaScreen™ methodology. The frozen cell plate is thawed for 20 minutes on a plate shaker then 10 μL of the cell lysate is transferred to a 96-well white plate. 40 μL of mixed AlphaScreen™ detection beads (containing equal volumes of donor beads (pre-incubated with biotinylated cAMP in the dark for 30 minutes) and acceptor beads is added to each well and the plate incubated at room temperature for 3 hours in the dark. The AlphaScreen™ signal is measured using an EnVision spectrophotometer (Perkin-Elmer Inc.) with the recommended manufacturer's settings. Concentration of cAMP produced per well were calculated with reference to the cAMP standard curve determined in the same experiment and expressed as a percentage of the maximum response generated by 1E-07M formoterol.

[2] = biological target: T2, human muscarinic acetylcholine M3 receptor (M3-ACh) (Homo sapiens, UniProt P20309); experiment: Muscarinic 3 Receptor Binding Assay, % inhibition specific binding at 1 μM; conditions: 1 μM compound, % inhibition specific [3H]-NMS binding
T2 construct: expressed in transfected cells; host or cells: CHO-K1 (Chinese Hamster Ovary) cell membranes
Protocol: The following experimental procedure was used to determine the M3% inhibition at 1 μM of the compounds of Examples 116-263.
Muscarinic 3 Receptor Binding Assay
The activity (% inhibition specific binding) of compounds -on the M3 receptor is determined by competition binding of [^3H]N-methyl scopolamine (NMS) to CHO-K1 (Chinese Hamster Ovary) cell membranes expressing the human muscarinic acetylcholine M3 receptor (M3-ACh) in a scintillation proximity assay (SPA) format.
SPA beads are precoated with membranes and then incubated at 2 mg of beads per well with 1 μM compound of the invention, [^3H]NMS at 0.1 nM, quarter Kd (experimentally determined dissociation constant) and assay buffer (20 mM HEPES pH 7.4 containing 5 mM MgCl2). The assay is conducted in a final volume of 200 μL, in the presence of 1% (v/v) dimethyl sulphoxide (DMSO). Total binding of [^3H]NMS is determined in the absence of competing compound and non-specific binding of [^3H]NMS is determined in the presence of 1 μM atropine. The plates are incubated for 16 hours at room temperature and then read on Wallac Microbeta™ using a normalised ^3H protocol. The compound activity at 1 defined as % inhibition specific [^3H]-NMS binding, is determined.

T1 sequence (P07550 whole entry): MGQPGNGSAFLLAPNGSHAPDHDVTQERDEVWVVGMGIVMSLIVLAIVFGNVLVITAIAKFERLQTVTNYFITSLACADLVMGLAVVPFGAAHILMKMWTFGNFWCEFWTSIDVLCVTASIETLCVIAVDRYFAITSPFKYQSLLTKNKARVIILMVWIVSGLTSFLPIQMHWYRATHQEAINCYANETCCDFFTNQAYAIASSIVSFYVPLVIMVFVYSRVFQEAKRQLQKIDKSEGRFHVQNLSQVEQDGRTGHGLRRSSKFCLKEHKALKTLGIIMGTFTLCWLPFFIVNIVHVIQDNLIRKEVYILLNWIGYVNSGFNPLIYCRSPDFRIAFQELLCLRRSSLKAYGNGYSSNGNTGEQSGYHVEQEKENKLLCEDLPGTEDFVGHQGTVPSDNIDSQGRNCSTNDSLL
T2 sequence (P20309 whole entry): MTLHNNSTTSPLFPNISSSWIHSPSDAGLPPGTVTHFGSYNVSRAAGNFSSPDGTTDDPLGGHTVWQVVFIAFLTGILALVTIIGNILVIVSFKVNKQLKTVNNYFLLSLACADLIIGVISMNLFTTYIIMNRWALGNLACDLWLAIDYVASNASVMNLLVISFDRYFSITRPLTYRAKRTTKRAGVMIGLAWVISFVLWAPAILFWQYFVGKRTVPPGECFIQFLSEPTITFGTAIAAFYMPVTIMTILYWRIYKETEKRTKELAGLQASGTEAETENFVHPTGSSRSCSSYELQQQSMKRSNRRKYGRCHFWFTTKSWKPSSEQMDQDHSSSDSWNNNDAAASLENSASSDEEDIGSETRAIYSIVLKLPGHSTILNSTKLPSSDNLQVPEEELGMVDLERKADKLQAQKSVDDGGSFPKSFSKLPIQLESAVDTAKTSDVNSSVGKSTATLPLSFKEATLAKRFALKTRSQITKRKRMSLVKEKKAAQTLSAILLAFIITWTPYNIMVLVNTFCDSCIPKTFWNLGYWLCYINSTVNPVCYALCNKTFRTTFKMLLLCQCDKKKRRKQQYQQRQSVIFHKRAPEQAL

SMILES | activation at 1 µM [1] | inhibition at 1 µM [2]
Cc1cc(C(=O)N2CCOC3(CCN(Cc4cc(F)cc(CCNC[C@H](O)c5ccc(O)c6[nH]c(=O)sc56)c4)CC3)C2)c(C)s1 [Example 150, (R)-7-(2-(3-((4-(2,5-dimethylthiophene-3-carbonyl)-1-oxa-4,9-diazaspiro[5.5]undecan-9-yl)methyl)-5-fluorophenethylamino)-1-hydroxyethyl)-4-hydroxybenzo[d]thiazol-2(3H)-one] | 100% | 91%
Cc1nonc1C(=O)N1CCOC2(CCN(Cc3cc(F)cc(CCNC[C@H](O)c4ccc(O)c5[nH]c(=O)sc45)c3)CC2)C1 [Example 151, (R)-7-(2-(3-fluoro-5-((4-(4-methyl-1,2,5-oxadiazole-3-carbonyl)-1-oxa-4,9-diazaspiro[5.5]undecan-9-yl)methyl)phenethylamino)-1-hydroxyethyl)-4-hydroxybenzo[d]thiazol-2(3H)-one] | 98% | 71%
Cc1nc2ccccn2c1C(=O)N1CCOC2(CCN(Cc3cc(F)cc(CCNC[C@H](O)c4ccc(O)c5[nH]c(=O)sc45)c3)CC2)C1 [Example 152, (R)-7-(2-(3-fluoro-5-((4-(2-methylimidazo[1,2-a]pyridine-3-carbonyl)-1-oxa-4,9-diazaspiro[5.5]undecan-9-yl)methyl)phenethylamino)-1-hydroxyethyl)-4-hydroxybenzo[d]thiazol-2(3H)-one] | 110% | 13%
Cc1ccn(CC(=O)N2CCOC3(CCN(Cc4cc(F)cc(CCNC[C@H](O)c5ccc(O)c6[nH]c(=O)sc56)c4)CC3)C2)n1 [Example 153, (R)-7-(2-(3-fluoro-5-((4-(2-(3-methyl-1H-pyrazol-1-yl)acetyl)-1-oxa-4,9-diazaspiro[5.5]undecan-9-yl)methyl)phenethylamino)-1-hydroxyethyl)-4-hydroxybenzo[d]thiazol-2(3H)-one] | 98% | 67%
CCOc1ccc(O)c(C(=O)N2CCOC3(CCN(Cc4cc(F)cc(CCNC[C@H](O)c5ccc(O)c6[nH]c(=O)sc56)c4)CC3)C2)c1 [Example 154, (R)-7-(2-(3-((4-(5-ethoxy-2-hydroxybenzoyl)-1-oxa-4,9-diazaspiro[5.5]undecan-9-yl)methyl)-5-fluorophenethylamino)-1-hydroxyethyl)-4-hydroxybenzo[d]thiazol-2(3H)-one] | 102% | 28%
O=C(c1cc(-c2ccccc2)n[nH]1)N1CCOC2(CCN(Cc3cc(F)cc(CCNC[C@H](O)c4ccc(O)c5[nH]c(=O)sc45)c3)CC2)C1 [Example 155, (R)-7-(2-(3-fluoro-5-((4-(3-phenyl-1H-pyrazole-5-carbonyl)-1-oxa-4,9-diazaspiro[5.5]undecan-9-yl)methyl)phenethylamino)-1-hydroxyethyl)-4-hydroxybenzo[d]thiazol-2(3H)-one] | 101% | 4%
O=C(c1ccc(-n2ccnc2)cc1)N1CCOC2(CCN(Cc3cc(F)cc(CCNC[C@H](O)c4ccc(O)c5[nH]c(=O)sc45)c3)CC2)C1 [Example 156, (R)-7-(2-(3-((4-(4-(1H-imidazol-1-yl)benzoyl)-1-oxa-4,9-diazaspiro[5.5]undecan-9-yl)methyl)-5-fluorophenethylamino)-1-hydroxyethyl)-4-hydroxybenzo[d]thiazol-2(3H)-one] | 106% | 3%
Cc1ccc2[nH]c(C(=O)N3CCOC4(CCN(Cc5cc(F)cc(CCNC[C@H](O)c6ccc(O)c7[nH]c(=O)sc67)c5)CC4)C3)cc2c1 [Example 157, (R)-7-(2-(3-fluoro-5-((4-(5-methyl-1H-indole-2-carbonyl)-1-oxa-4,9-diazaspiro[5.5]undecan-9-yl)methyl)phenethylamino)-1-hydroxyethyl)-4-hydroxybenzo[d]thiazol-2(3H)-one] | 102% | 13%
O=C([C@@H]1CCCO1)N1CCOC2(CCN(Cc3cc(F)cc(CCNC[C@H](O)c4ccc(O)c5[nH]c(=O)sc45)c3)CC2)C1 [Example 158, 7-((R)-2-(3-fluoro-5-((4-((S)-tetrahydrofuran-2-carbonyl)-1-oxa-4,9-diazaspiro[5.5]undecan-9-yl)methyl)phenethylamino)-1-hydroxyethyl)-4-hydroxybenzo[d]thiazol-2(3H)-one] | 95% | 72%
O=C(c1ccc(-c2cnco2)cc1)N1CCOC2(CCN(Cc3cc(F)cc(CCNC[C@H](O)c4ccc(O)c5[nH]c(=O)sc45)c3)CC2)C1 [Example 159, (R)-7-(2-(3-fluoro-5-((4-(4-(oxazol-5-yl)benzoyl)-1-oxa-4,9-diazaspiro[5.5]undecan-9-yl)methyl)phenethylamino)-1-hydroxyethyl)-4-hydroxybenzo[d]thiazol-2(3H)-one] | 90% | 3%
O=C(c1ccnn1-c1ccccc1)N1CCOC2(CCN(Cc3cc(F)cc(CCNC[C@H](O)c4ccc(O)c5[nH]c(=O)sc45)c3)CC2)C1 [Example 160, (R)-7-(2-(3-fluoro-5-((4-(1-phenyl-1H-pyrazole-5-carbonyl)-1-oxa-4,9-diazaspiro[5.5]undecan-9-yl)methyl)phenethylamino)-1-hydroxyethyl)-4-hydroxybenzo[d]thiazol-2(3H)-one] | 91% | 5%
CC1=NNC(=O)C1CCC(=O)N1CCOC2(CCN(Cc3cc(F)cc(CCNC[C@H](O)c4ccc(O)c5[nH]c(=O)sc45)c3)CC2)C1 (stereo partly drawn) [Example 161, 7-((1R)-2-(3-fluoro-5-((4-(3-(3-methyl-5-oxo-4,5-dihydro-1H-pyrazol-4-yl)propanoyl)-1-oxa-4,9-diazaspiro[5.5]undecan-9-yl)methyl)phenethylamino)-1-hydroxyethyl)-4-hydroxybenzo[d]thiazol-2(3H)-one] | 87% | 42%
Cc1nc2cc(C(=O)N3CCOC4(CCN(Cc5cc(F)cc(CCNC[C@H](O)c6ccc(O)c7[nH]c(=O)sc67)c5)CC4)C3)ccc2n1C [Example 162, (R)-7-(2-(3-((4-(1,2-dimethyl-1H-benzo[d]imidazole-5-carbonyl)-1-oxa-4,9-diazaspiro[5.5]undecan-9-yl)methyl)-5-fluorophenethylamino)-1-hydroxyethyl)-4-hydroxybenzo[d]thiazol-2(3H)-one] | 91% | 8%
Cc1nonc1CC(=O)N1CCOC2(CCN(Cc3cc(F)cc(CCNC[C@H](O)c4ccc(O)c5[nH]c(=O)sc45)c3)CC2)C1 [Example 163, (R)-7-(2-(3-fluoro-5-((4-(2-(4-methyl-1,2,5-oxadiazol-3-yl)acetyl)-1-oxa-4,9-diazaspiro[5.5]undecan-9-yl)methyl)phenethylamino)-1-hydroxyethyl)-4-hydroxybenzo[d]thiazol-2(3H)-one] | 95% | 25%
O=C(CCn1cncn1)N1CCOC2(CCN(Cc3cc(F)cc(CCNC[C@H](O)c4ccc(O)c5[nH]c(=O)sc45)c3)CC2)C1 [Example 164, (R)-7-(2-(3-((4-(3-(1H-1,2,4-triazol-1-yl)propanoyl)-1-oxa-4,9-diazaspiro[5.5]undecan-9-yl)methyl)-5-fluorophenethylamino)-1-hydroxyethyl)-4-hydroxybenzo[d]thiazol-2(3H)-one] | 99% | 35%
